# Reference: patent US7192906B2, “Substituted pyrazole derivatives, production process thereof, and herbicide compositions containing the derivatives” (SDS Biotech K.K., priority 2001, dated 2007)
# Columns and labels:
# Format in all cases: in vivo
# Chenopodium album [1] = experiment: Test Example 1 upland field foliage treatment; conditions: Table 4, upland field foliage treatment, index 0-5
# Method in brief: (§1)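 Scores are visual 0–5 ratings of herbicidal effect or crop injury (0: under 10%; 5: 90% or more) taken 21 days after treatment. Plants grew from seed in upland soil for 14 days, then foliage received the compound as a water-diluted wettable powder at 1 kg/ha active ingredient.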
# Digitaria adscendens [2] = experiment: Test Example 1 upland field foliage treatment; conditions: Table 4, upland field foliage treatment, index 0-5
# Method in brief: as §1
# Setaria viridis [3] = experiment: Test Example 1 upland field foliage treatment; conditions: Table 4, upland field foliage treatment, index 0-5
# Method in brief: as §1
# Stellaria media [4] = experiment: Test Example 1 upland field foliage treatment; conditions: Table 4, upland field foliage treatment, index 0-5
# Method in brief: as §1
# soybean (Glycine max) [5] = experiment: Test Example 1 upland field foliage treatment, crop phytotoxicity; conditions: Table 4, upland field foliage treatment, index 0-5
# Method in brief: as §1
# [6] = test system: wheat (Triticum aestivum); experiment: as above; conditions: Table 4, upland field foliage treatment, index 0-5
# Method in brief: as §1
# Chenopodium album [7] = experiment: Test Example 2 upland soil treatment; conditions: Table 5, upland soil treatment, index 0-5
# Protocol: (§2) A plastic pot of 130 cm^2 was filled with upland soil. Subsequently, weed seeds of Setaria viridis, Digitaria adscendens, Chenopodium album and Stellaria media, and crop seeds of soybean (Glycine max) and wheat (Triticum aestivum), were sowed and covered with soil of about 1 cm thickness. On the next day after the sowing, the wettable powder prepared in Formulation Example 1 was diluted with water such that the amount of the active ingredient became 1 kg per hectare, and then uniformly applied to the soil surface. On the 21st day after the application, observation and evaluation were carried out according to the aforesaid criteria.
# (§3) Herbicidal activity was evaluated based on the following criteria.
# (§4) • 5: herbicidal effect of not less than 90%, or phytotoxicity of 90% or more • 4: herbicidal effect of not less than 70% and less than 90%, or phytotoxicity of 70% or more and less than 90% • 3: herbicidal effect of not less than 50% and less than 70%, or phytotoxicity of 50% or more and less than 70% • 2: herbicidal effect of not less than 30% and less than 50%, or phytotoxicity of 30% or more and less than 50% • 1: herbicidal effect of not less than 10% and less than 30%, or phytotoxicity of 10% or more and less than 30% • 0: herbicidal effect of not less than 0% and less than 10%, or phytotoxicity of 0% or more and less than 10%
# Digitaria adscendens [8] = experiment: Test Example 2 upland soil treatment; conditions: Table 5, upland soil treatment, index 0-5
# Protocol: as §2, §3, §4
# Setaria viridis [9] = experiment: Test Example 2 upland soil treatment; conditions: Table 5, upland soil treatment, index 0-5
# Protocol: as §2, §3, §4
# Stellaria media [10] = experiment: Test Example 2 upland soil treatment; conditions: Table 5, upland soil treatment, index 0-5
# Protocol: as §2, §3, §4
# soybean (Glycine max) [11] = experiment: Test Example 2 upland soil treatment, crop phytotoxicity; conditions: Table 5, upland soil treatment, index 0-5
# Protocol: as §2, §3, §4
# [12] = test system: wheat (Triticum aestivum); experiment: as above; conditions: Table 5, upland soil treatment, index 0-5
# Protocol: as §2, §3, §4
SMILES,Herbicidal activity CA: Chenopodium album (Chenopodium album [1]),Herbicidal activity DA: Digitaria adscendens (Digitaria adscendens [2]),Herbicidal activity SV: Setaria viridis (Setaria viridis [3]),Herbicidal activity SM: Stellaria media (Stellaria media [4]),Herbicidal activity (phytotoxicity) GM: Soybean (Glycine max) (soybean (Glycine max) [5]),Herbicidal activity (phytotoxicity) TA: Wheat (Triticum aestivum) [6],Herbicidal activity CA: Chenopodium album (Chenopodium album [7]),Herbicidal activity DA: Digitaria adscendens (Digitaria adscendens [8]),Herbicidal activity SV: Setaria viridis (Setaria viridis [9]),Herbicidal activity SM: Stellaria media (Stellaria media [10]),Herbicidal activity (phytotoxicity) GM: Soybean (Glycine max) (soybean (Glycine max) [11]),Herbicidal activity (phytotoxicity) TA: Wheat (Triticum aestivum) [12]
CNC(=O)C(Cn1cc(C)c(-c2cccc(Cl)c2)n1)=NOC [Compound 46],"5 (herbicidal effect of not less than 90%, or phytotoxicity of 90% or more)","5 (herbicidal effect of not less than 90%, or phytotoxicity of 90% or more)","5 (herbicidal effect of not less than 90%, or phytotoxicity of 90% or more)","5 (herbicidal effect of not less than 90%, or phytotoxicity of 90% or more)","0 (herbicidal effect of not less than 0% and less than 10%, or phytotoxicity of 0% or more and less than 10%)","0 (herbicidal effect of not less than 0% and less than 10%, or phytotoxicity of 0% or more and less than 10%)","5 (herbicidal effect of not less than 90%, or phytotoxicity of 90% or more)","5 (herbicidal effect of not less than 90%, or phytotoxicity of 90% or more)","5 (herbicidal effect of not less than 90%, or phytotoxicity of 90% or more)","5 (herbicidal effect of not less than 90%, or phytotoxicity of 90% or more)","1 (herbicidal effect of not less than 10% and less than 30%, or phytotoxicity of 10% or more and less than 30%)","0 (herbicidal effect of not less than 0% and less than 10%, or phytotoxicity of 0% or more and less than 10%)"
CNC(=O)C(Cn1cc(C)c(-c2ccc(OCc3ccccc3)cc2)n1)=NOC [Compound 54],"4 (herbicidal effect of not less than 70% and less than 90%, or phytotoxicity of 70% or more and less than 90%)","5 (herbicidal effect of not less than 90%, or phytotoxicity of 90% or more)","4 (herbicidal effect of not less than 70% and less than 90%, or phytotoxicity of 70% or more and less than 90%)","4 (herbicidal effect of not less than 70% and less than 90%, or phytotoxicity of 70% or more and less than 90%)","0 (herbicidal effect of not less than 0% and less than 10%, or phytotoxicity of 0% or more and less than 10%)","0 (herbicidal effect of not less than 0% and less than 10%, or phytotoxicity of 0% or more and less than 10%)","5 (herbicidal effect of not less than 90%, or phytotoxicity of 90% or more)","4 (herbicidal effect of not less than 70% and less than 90%, or phytotoxicity of 70% or more and less than 90%)","3 (herbicidal effect of not less than 50% and less than 70%, or phytotoxicity of 50% or more and less than 70%)","5 (herbicidal effect of not less than 90%, or phytotoxicity of 90% or more)","0 (herbicidal effect of not less than 0% and less than 10%, or phytotoxicity of 0% or more and less than 10%)","0 (herbicidal effect of not less than 0% and less than 10%, or phytotoxicity of 0% or more and less than 10%)"
CNC(=O)C(Cn1cc(C)c(-c2ccc(SC(F)(F)F)cc2)n1)=NOC [Compound 70],"5 (herbicidal effect of not less than 90%, or phytotoxicity of 90% or more)","5 (herbicidal effect of not less than 90%, or phytotoxicity of 90% or more)","4 (herbicidal effect of not less than 70% and less than 90%, or phytotoxicity of 70% or more and less than 90%)","4 (herbicidal effect of not less than 70% and less than 90%, or phytotoxicity of 70% or more and less than 90%)","0 (herbicidal effect of not less than 0% and less than 10%, or phytotoxicity of 0% or more and less than 10%)","0 (herbicidal effect of not less than 0% and less than 10%, or phytotoxicity of 0% or more and less than 10%)","4 (herbicidal effect of not less than 70% and less than 90%, or phytotoxicity of 70% or more and less than 90%)","3 (herbicidal effect of not less than 50% and less than 70%, or phytotoxicity of 50% or more and less than 70%)","3 (herbicidal effect of not less than 50% and less than 70%, or phytotoxicity of 50% or more and less than 70%)","4 (herbicidal effect of not less than 70% and less than 90%, or phytotoxicity of 70% or more and less than 90%)","0 (herbicidal effect of not less than 0% and less than 10%, or phytotoxicity of 0% or more and less than 10%)","0 (herbicidal effect of not less than 0% and less than 10%, or phytotoxicity of 0% or more and less than 10%)"
CNC(=O)C(Cn1cc(C)c(-c2ccc(C)c(F)c2)n1)=NOC [Compound 74],"5 (herbicidal effect of not less than 90%, or phytotoxicity of 90% or more)","5 (herbicidal effect of not less than 90%, or phytotoxicity of 90% or more)","5 (herbicidal effect of not less than 90%, or phytotoxicity of 90% or more)","5 (herbicidal effect of not less than 90%, or phytotoxicity of 90% or more)","0 (herbicidal effect of not less than 0% and less than 10%, or phytotoxicity of 0% or more and less than 10%)","0 (herbicidal effect of not less than 0% and less than 10%, or phytotoxicity of 0% or more and less than 10%)","5 (herbicidal effect of not less than 90%, or phytotoxicity of 90% or more)","5 (herbicidal effect of not less than 90%, or phytotoxicity of 90% or more)","4 (herbicidal effect of not less than 70% and less than 90%, or phytotoxicity of 70% or more and less than 90%)","5 (herbicidal effect of not less than 90%, or phytotoxicity of 90% or more)","1 (herbicidal effect of not less than 10% and less than 30%, or phytotoxicity of 10% or more and less than 30%)","0 (herbicidal effect of not less than 0% and less than 10%, or phytotoxicity of 0% or more and less than 10%)"
CNC(=O)C(Cn1cc(C)c(-c2ccc(F)c(C)c2)n1)=NOC [Compound 75],"5 (herbicidal effect of not less than 90%, or phytotoxicity of 90% or more)","5 (herbicidal effect of not less than 90%, or phytotoxicity of 90% or more)","5 (herbicidal effect of not less than 90%, or phytotoxicity of 90% or more)","5 (herbicidal effect of not less than 90%, or phytotoxicity of 90% or more)","0 (herbicidal effect of not less than 0% and less than 10%, or phytotoxicity of 0% or more and less than 10%)","0 (herbicidal effect of not less than 0% and less than 10%, or phytotoxicity of 0% or more and less than 10%)","5 (herbicidal effect of not less than 90%, or phytotoxicity of 90% or more)","4 (herbicidal effect of not less than 70% and less than 90%, or phytotoxicity of 70% or more and less than 90%)","4 (herbicidal effect of not less than 70% and less than 90%, or phytotoxicity of 70% or more and less than 90%)","5 (herbicidal effect of not less than 90%, or phytotoxicity of 90% or more)","1 (herbicidal effect of not less than 10% and less than 30%, or phytotoxicity of 10% or more and less than 30%)","0 (herbicidal effect of not less than 0% and less than 10%, or phytotoxicity of 0% or more and less than 10%)"
